The source of these data is US8222264B2, “Substituted amino-quinazolinones, medicaments comprising said compound, their use and their method of manufacture” (Boehringer Ingelheim International GmbH, priority 2007, dated 2012).

Structures are written as SMILES.

T1 sequence (P56817 22-454): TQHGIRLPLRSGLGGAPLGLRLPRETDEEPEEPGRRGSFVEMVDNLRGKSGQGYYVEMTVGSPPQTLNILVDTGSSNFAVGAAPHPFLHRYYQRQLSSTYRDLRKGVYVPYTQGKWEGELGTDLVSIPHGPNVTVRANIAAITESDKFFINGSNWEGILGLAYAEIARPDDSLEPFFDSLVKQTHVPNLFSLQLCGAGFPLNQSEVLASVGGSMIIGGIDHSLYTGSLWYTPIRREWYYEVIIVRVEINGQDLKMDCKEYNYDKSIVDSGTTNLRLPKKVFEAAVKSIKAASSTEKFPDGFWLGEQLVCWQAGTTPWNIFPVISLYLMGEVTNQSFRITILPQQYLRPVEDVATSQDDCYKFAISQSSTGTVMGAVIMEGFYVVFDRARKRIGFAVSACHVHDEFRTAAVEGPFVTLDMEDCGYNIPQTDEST

This assay concerns the target T1, β-secretase (ectodomain of BACE, amino acids 1-454) (Homo sapiens, UniProt P56817).
T1 construct: poly-histidine; made in house; host or cells: HEK293/APP/BACEect. cells; unpurified culture supernatant in OptiMEM used as enzyme source
The assay can be described thus: β-secretase activity assay, fluorescence-quenched Cy3/Cy5Q peptide substrate. The class given is biochemical. The settings on record: 100 μM test compound; positive control minus negative control = 100%; values above 100% adjusted to 100%. How it is done: To calculate the IC50 value of a substance different amounts of substance are incubated with the β-secretase in an assay. The IC50 value of a compound is defined as the concentration of substance at which a 50% reduction in the detected signal is measured, compared with the mixture without the test compound. Substances are evaluated as inhibiting β-secretase if under these conditions their IC50 value is less than 50 μM, preferably less than 10 μM and particularly preferably less than 1 μM.
In detail, an assay for detecting β-secretase activity may be as follows: The ectodomain of BACE (amino acids 1-454) fused to the recognition sequence for an anti-Myc antibody and a poly-histidine is secreted overnight by HEK293/APP/BACEect. cells in OptiMEM® (Invitrogen). A 10 μl aliquot of this cell culture supernatant is used as the enzyme source. The enzyme is stable over more than 3 months' storage at 4° C. or −20° C. in OptiMEM®. The substrate used is a peptide with the amino acid sequence SEVNLDAEFK, to which the Cy3 fluorophore (Amersham) is coupled N-terminally and the Cy5Q fluorophore (Amersham) is coupled C-terminally. The substrate is dissolved in DMSO in a concentration of 1 mg/ml and used in the experiment in a concentration of 1 μM. The test mixture also contains 20 mM NaOAc, pH 4.4 and a maximum of 1% DMSO. The test is carried out in a 96-well plate in a total volume of 200 μl for 30 minutes at 30° C. The cleaving of the substrate is recorded kinetically in a fluorimeter (ex: 530 nm, em: 590 nm). The assay is started by adding the substrate.
Mixtures without enzyme (i.e. negative control) or without inhibitor (i.e. positive control) are included in each plate as controls.
The activity of the positive control (minus the negative control=background) is set to 100% and activity in the presence of test compound is expressed relative to these 100%. […]
IC50 can be calculated with Graph Pad Prism or other suited software setting the positive control minus the negative control as 100. […]
For the compound `CCOc1ccccc1-c1ccc2nc(N)n(C(CCC(=O)N(C)C3CCCCC3)C3CCCCC3)c(=O)c2c1` (stereo not drawn) [Example 2], the inhibition (in general, the change of the read-out against control, counted positive when it falls) at 100 µM is 81%. Then `CN(C(=O)CC[C@@H](C1CCCCC1)n1c(N)nc2ccc(Oc3ccccc3)cc2c1=O)C1CCCCC1` [Example 1], with 98%; and `CN(C(=O)CCC(C1CCCCC1)n1c(N)nc2ccc(Br)cc2c1=O)C1CCCCC1` (stereo not drawn) [Example 3], with 91%.
